# In ChEMBL document CHEMBL3400064, “Synthesis and biological evaluation of 2-arylbenzimidazoles targeting Leishmania donovani” (Bioorg Med Chem Lett, 2015):
# What was measured:
# Leishmania donovani [1] = experiment: Antileishmanial activity against axenic amastigote Leishmania donovani MHOM/SD/1962/1S-Cl2d assessed as inhibition of parasite growth after 24 hrs at 15 uM by alamarBlue assay; format: functional
# Leishmania donovani [2] = experiment: Antileishmanial activity against axenic amastigote Leishmania donovani MHOM/SD/1962/1S-Cl2d assessed as inhibition of parasite growth after 24 hrs at 50 uM by alamarBlue assay; format: functional
# Leishmania donovani [3] = experiment: Antileishmanial activity against axenic amastigote Leishmania donovani MHOM/SD/1962/1S-Cl2d assessed as inhibition of parasite growth after 24 hrs at 5 uM by alamarBlue assay; format: functional
# Leishmania donovani [4] = experiment: Antileishmanial activity against Leishmania donovani MHOM/SD/1962/1S-Cl2d infected THP1 cells assessed as inhibition of intracellular […] amastigote at 5 uM after 48 hrs at 50 uM by Bright-Glo luciferase assay; format: functional, THP-1
# Leishmania donovani [5] = experiment: Antileishmanial activity against Leishmania donovani MHOM/SD/1962/1S-Cl2d infected THP1 cells assessed as inhibition of intracellular […] amastigote after 48 hrs at 50 uM by Bright-Glo luciferase assay; format: functional, organism-based; details: THP-1, 48 h
# [6] = Cytotoxicity against mouse NIH/3T3 cells assessed as viability at 15 uM after 48 hrs by alamarBlue assay; format: cell-based, NIH3T3; details: read-out: Activity
# [7] = Cytotoxicity against mouse NIH/3T3 cells assessed as viability after 48 hrs by alamarBlue assay; format: cell-based; details: NIH3T3, 48 h
IC50 (Leishmania donovani [5]) [µM],SMILES,inhibition at 15 µM (Leishmania donovani [1]) [%],inhibition at 50 µM (Leishmania donovani [2]) [%],inhibition at 5 µM (Leishmania donovani [3]) [%],inhibition (INH) (Leishmania donovani [4]) [%],"viability at 48 h, 15 µM [6] [%]",IC50 [7] [µM]
,CC(=O)Nc1cccc(-c2nc3ccccc3[nH]2)c1,21,56,20,,,
,Cn1cccc1C(=O)Nc1cccc(-c2nc3ccccc3[nH]2)c1,,33,,,,
,O=C(Nc1cccc(-c2nc3ccccc3[nH]2)c1)c1cscn1,,45,,,,
,Cc1cccc(C(=O)Nc2cccc(-c3nc4ccccc4[nH]3)c2)c1,52,59,26,,,
,O=C(Nc1cccc(-c2nc3ccccc3[nH]2)c1)c1cccc(C(F)(F)F)c1,68,83,17,,,
,O=C(Nc1cccc(-c2nc3ccccc3[nH]2)c1)c1cccc(Cl)c1,60,57,26,,,
,COc1cccc(C(=O)Nc2cccc(-c3nc4ccccc4[nH]3)c2)c1,,49,,,,
,COC(=O)c1cccc(C(=O)Nc2cccc(-c3nc4ccccc4[nH]3)c2)c1,74,100,18,,,
,Cc1ccccc1C(=O)Nc1cccc(-c2nc3ccccc3[nH]2)c1,47,55,22,,,
,O=C(Nc1cccc(-c2nc3ccccc3[nH]2)c1)c1ccccc1C(F)(F)F,73,82,22,,,
,COc1ccccc1C(=O)Nc1cccc(-c2nc3ccccc3[nH]2)c1,27,75,23,,,
,CC(C)(C)C(=O)Nc1cccc(-c2nc3ccccc3[nH]2)c1,44,54,27,,,
8.8,O=C(Nc1cccc(-c2nc3ccccc3[nH]2)c1)C1CCCCC1,61,68,41,19.8,23.8,22.2
10.5,Cc1ccc2[nH]c(-c3cccc(NC(=O)c4cccs4)c3)nc2c1,50,77,36,4.1,14.1,16.7
,O=C(Nc1cccc(-c2nc3cc(Cl)ccc3[nH]2)c1)c1cccs1,57,80,11,,,
17.8,Cc1cccc2[nH]c(-c3cccc(NC(=O)c4cccs4)c3)nc12,56,83,32,46.4,5.3,> 300
,Cc1c(NC(=O)c2cccs2)cccc1-c1nc2ccccc2[nH]1,,31,,,,
,COc1ccc(-c2nc3ccccc3[nH]2)cc1NC(=O)c1cccs1,,38,,,,
22.1,Cn1c(-c2cccc(NC(=O)c3cccs3)c2)nc2ccccc21,56,74,30,27.7,-12.9,61.3

IC50 (Leishmania donovani [5]) [µM],SMILES,inhibition at 15 µM (Leishmania donovani [1]) [%],inhibition at 50 µM (Leishmania donovani [2]) [%],inhibition at 5 µM (Leishmania donovani [3]) [%],inhibition (INH) (Leishmania donovani [4]) [%],"viability at 48 h, 15 µM [6] [%]",IC50 [7] [µM]
,O=S(=O)(Nc1cccc(-c2nc3ccccc3[nH]2)c1)c1ccccc1,30,52,0,,,
,O=C(Nc1cccc(-c2nc3ccccc3o2)c1)c1cccs1,,34,,,,
,O=C(Nc1ccc(-c2nc3ccccc3[nH]2)cc1)c1cccs1,,22,,,,
,O=C(Nc1cccc(-c2nc3ccccc3[nH]2)c1)c1ccsc1,67,83,17,,,
,O=C(Cc1cccs1)Nc1cccc(-c2nc3ccccc3[nH]2)c1,,49,,,,
,O=C(Nc1cccc(-c2nc3ccccc3[nH]2)c1)c1ccco1,,43,,,,
,O=C(Nc1cccc(-c2nc3ccccc3[nH]2)c1)c1ccoc1,39,80,19,,,
,O=C(Nc1cccc(-c2nc3ccccc3[nH]2)c1)c1ccccn1,35,57,19,,,
,O=C(Nc1cccc(-c2nc3ccccc3[nH]2)c1)c1ccccc1F,37,74,24,,,
,O=C(Nc1cccc(-c2nc3ccccc3[nH]2)c1)c1ccccc1,43,56,17,,,
,CCCCC(=O)Nc1cccc(-c2nc3ccccc3[nH]2)c1,67,82,15,,,
,O=C(Nc1cccc(-c2nc3ccccc3[nH]2)c1)C1CCCC1,76,87,22,,,
,O=C(Nc1ccccc1)Nc1cccc(-c2nc3ccccc3[nH]2)c1,73,84,13,,,
,O=C(Nc1cccc(-c2nc3ccccc3[nH]2)c1)NC1CCCCC1,90,94,24,,,
,O=C(Nc1ccccc1)Nc1ccccc1-c1nc2ccccc2[nH]1,16,67,12,,,
7.6,O=C(Nc1ccccc1-c1nc2ccccc2[nH]1)NC1CCCCC1,65,88,36,22.2,-4.4,42.2
,O=C(Nc1ccccc1)c1cccc(-c2nc3ccccc3[nH]2)c1,57,87,8,,,
,O=C(Nc1ccccc1-c1nc2ccccc2[nH]1)c1cccs1,26,51,26,,,
,O=C(Nc1cccc(-c2cc3ccccc3[nH]2)c1)c1cccs1,33,86,16,,,

IC50 (Leishmania donovani [5]) [µM],SMILES,inhibition at 15 µM (Leishmania donovani [1]) [%],inhibition at 50 µM (Leishmania donovani [2]) [%],inhibition at 5 µM (Leishmania donovani [3]) [%],inhibition (INH) (Leishmania donovani [4]) [%],"viability at 48 h, 15 µM [6] [%]",IC50 [7] [µM]
,CCn1c(-c2cccc(NC(=O)c3cccs3)c2)nc2ccccc21,81,87,24,,,
,CCCn1c(-c2cccc(NC(=O)c3cccs3)c2)nc2ccccc21,70,86,25,,,
,CN(C(=O)c1cccs1)c1cccc(-c2nc3ccccc3[nH]2)c1,21,40,3,,,
,O=C(Cc1cccs1)Nc1cccc(-c2ncc[nH]2)c1,,0,,,,
,CCc1ccccc1C(=O)Nc1cccc(-c2nc3ccccc3[nH]2)c1,52,88,21,,,
,O=C(Nc1cccc(-c2nc3ccccc3[nH]2)c1)c1ccccc1Cl,55,79,23,,,
,O=C(O)c1cccc(C(=O)Nc2cccc(-c3nc4ccccc4[nH]3)c2)c1,,0,,,,
,COc1ccc(C(=O)Nc2cccc(-c3nc4ccccc4[nH]3)c2)cc1,52,64,35,,54.1,
23.4,O=C(Nc1cccc(-c2nc3ccccc3[nH]2)c1)c1ccc(F)cc1,50,69,32,16,-11.9,15.4
,O=C(Nc1cccc(-c2nc3ccccc3[nH]2)c1)c1ccc(Cl)cc1,41,63,27,,,
,O=C(Nc1cccc(-c2nc3ccccc3[nH]2)c1)c1ccc(-c2ccccc2)cc1,80,96,41,,88.7,
,Cc1cc(C)cc(C(=O)Nc2cccc(-c3nc4ccccc4[nH]3)c2)c1,56,88,22,,,
,Cc1ccc(C)c(C(=O)Nc2cccc(-c3nc4ccccc4[nH]3)c2)c1,28,78,15,,,
,COc1cc(OC)cc(C(=O)Nc2cccc(-c3nc4ccccc4[nH]3)c2)c1,58,83,32,,,
,O=C(Nc1cccc(-c2nc3ccccc3[nH]2)c1)c1cc(Cl)cc(Cl)c1,44,97,28,,,
,O=C(Nc1cccc(-c2nc3ccccc3[nH]2)c1)c1cc(Br)cc(Br)c1,55,72,29,,,
25.1,O=C(Nc1cccc(-c2nc3ccccc3[nH]2)c1)c1cccs1,48,66,39,21.7,-0.6,15
,Cc1ccc(C(=O)Nc2cccc(-c3nc4ccccc4[nH]3)c2)cc1,71,82,23,,,
